Test results published in US20220184034A1, “METHODS FOR TREATING CUTANEOUS METASTATIC CANCERS” (Adgero Biopharmaceuticals Holdings, Inc., priority 2020, published 2022).

Key:
Format in all cases: in vivo, patients
[1] = tested on: cutaneous lesions arising from either basal cell cancer, squamous cell cancer or CMBC; test: Phase 1/2 dose escalation study of SnET2 PDT: acute lesion reaction grade at Week 1; details: Week 1 post-treatment
Experimental: Two Phase 1/2 studies established the clinical dosimetry. The first study was a dose escalation study that enrolled a total of 22 patients with cutaneous lesions arising from either basal cell cancer, squamous cell cancer or CMBC. A total of 213 lesions were treated using photosensitizer SnET2) doses ranging from 0.1-1.2 mg/kg, light doses of 100, 150 or 200 J/cm^2 and treatment timepoints of 24, 48, or 72 hours post-infusion. Two key measures were utilized in these studies, lesion reaction and lesion response. Lesion reaction was an acute characterization of the treatment effect that was performed out to 1 week post-treatment according to the following scale: • Grade 0=No visual erythema or edema • Grade 1=Faint erythema and/or slight edema • Grade 2=Moderate erythema and edema • Grade 3=Severe discoloration, edema, sloughing or eschar
A further analysis was undertaken to explore the relationship between the acute lesion reaction and the lesion response. […] Following are the results from patients who were scored for lesion reaction at Week 1 post-treatment and who received a drug dose of 0.8 mg/kg or higher. […] For the 0.8 mg/kg cases, only 5 of the 37 lesions (14%) received the highest lesion reaction score. In the case of the 1.2 mg/kg dose group, the percentage of lesions with the maximum lesion reaction score, 13 of 22 (59%), was substantially higher.

[2] = tested on: CMBC lesions; test: Four phase 2/3 studies of SnET2 PDT: lesion treatment response; details: 1.2 mg/kg; for Responders / Response Rate of Evaluable Lesions: 200 J/cm^2, ~24 h, lesions larger than 1 cm; for lesion response rate: 200 J/cm^2
Experimental: (§1) A factor that impacts clinical outcome is the time delay required for post-treatment effects to resolve. This factor is observed in the results from four subsequent phase 2/3 studies of CMBC lesions using a fixed drug dose of 1.2 mg/kg and a fixed light dose of 200 J/cm^2 administered at approximately 24 hours post-infusion. In these studies lesions were first scored for lesion reaction and then scored for lesion treatment response after the lesion reaction had resolved. In the case of lesion reaction scoring, the reaction was first assessed by the investigator at approximately 4-week intervals and assigned a Reaction Score according to the following defined terms: • 0=No erythema, edema or residual eschar • 1=Mild (faint) erythema and/or slight edema present • 2=Moderate erythema and edema present • 3=Severe erythema and edema present • 4=Sloughing, ulceration, and/or eschar present • 5=Eschar requiring debridement
(§2) Once a lesion scored a Reaction Score of 0 or 1 it was deemed suitably healed for evaluation, at which time its treatment response was quantified by visual measurement of the two longest dimensions. In those cases where the patient left the study before a reaction score of 0-1 was reached, those lesions were classified as not evaluable.
(§3) An analysis conducted of the median time to lesion evaluation (time to reach a reaction score of 0 or 1) in these same four phase 2/3 CMBC trials indicates the time delay for post-treatment effects to resolve was closely associated with the acute (week 1-2 post-treatment) lesion reaction score, with higher acute reaction scores being associated with a longer time to lesion evaluation, consistent with a more severe treatment reaction requiring a longer time to resolve. […] Because larger lesions are most likely to be clinically relevant, this table only includes those lesions from the same four CMBC phase 2/3 trials that had baseline dimensions larger than 1 cm.

[3] = tested on: CMBC lesions; test: Four phase 2/3 studies of SnET2 PDT: lesion reaction score and time to lesion evaluation; details: 1.2 mg/kg; for Median Evaluable Week / Total with Max Reaction During Trial ≥4: 200 J/cm^2, ~24 h, lesions larger than 1 cm; for median time to evaluation: 200 J/cm^2
Experimental: Subsequent studies were conducted with dose parameters of 1.2 mg/kg of photosensitizer, 200 J/cm^2 of light, and 24 hours post administration as a treatment timepoint.
as §1, §2, §3

[4] = acute lesion reaction score 0-1
[5] = acute lesion reaction score 2-3
[6] = acute lesion reaction score 4-5

tin ethyl etiopurpurin [SnET2]
% with Max Rx Score at Week 1 ([1]; 0.8 mg/kg, 100 J/cm^2): 0%
Total with Max Rx Score at Week 1 ([1]; 0.8 mg/kg, 100 J/cm^2): 0
% with Max Rx Score at Week 1 ([1]; 0.8 mg/kg, 150 J/cm^2): 7%
Total with Max Rx Score at Week 1 ([1]; 0.8 mg/kg, 150 J/cm^2): 1
% with Max Rx Score at Week 1 ([1]; 0.8 mg/kg, 200 J/cm^2): 27%
Total with Max Rx Score at Week 1 ([1]; 0.8 mg/kg, 200 J/cm^2): 4
lesions with the highest lesion reaction score ([1]; 0.8 mg/kg): 5 of the 37
percentage of lesions with the highest lesion reaction score ([1]; 0.8 mg/kg): 14%
% with Max Rx Score at Week 1 ([1]; 1.0 mg/kg, 100 J/cm^2): 0%
Total with Max Rx Score at Week 1 ([1]; 1.0 mg/kg, 100 J/cm^2): 0
% with Max Rx Score at Week 1 ([1]; 1.0 mg/kg, 150 J/cm^2): 0%
Total with Max Rx Score at Week 1 ([1]; 1.0 mg/kg, 150 J/cm^2): 0
% with Max Rx Score at Week 1 ([1]; 1.0 mg/kg, 200 J/cm^2): 0%
Total with Max Rx Score at Week 1 ([1]; 1.0 mg/kg, 200 J/cm^2): 0
% with Max Rx Score at Week 1 ([1]; 1.2 mg/kg, 100 J/cm^2): 33%
Total with Max Rx Score at Week 1 ([1]; 1.2 mg/kg, 100 J/cm^2): 2
% with Max Rx Score at Week 1 ([1]; 1.2 mg/kg, 150 J/cm^2): 78%
Total with Max Rx Score at Week 1 ([1]; 1.2 mg/kg, 150 J/cm^2): 7
% with Max Rx Score at Week 1 ([1]; 1.2 mg/kg, 200 J/cm^2): 57%
Total with Max Rx Score at Week 1 ([1]; 1.2 mg/kg, 200 J/cm^2): 4
lesions with the maximum lesion reaction score ([1]; 1.2 mg/kg): 13 of 22
percentage of lesions with the maximum lesion reaction score ([1]; 1.2 mg/kg): 59%
Responders [2, 4]: 48
Response Rate of Evaluable Lesions [2, 4]: 63%
Responders [2, 5]: 168
Response Rate of Evaluable Lesions [2, 5]: 81%
Responders [2, 6]: 179
Response Rate of Evaluable Lesions [2, 6]: 88%
lesion response rate ([2]; acute lesion reactions of 2-3): 81%
lesion response rate ([2]; acute reactions of 4-5): 88%
healing following treatment ([3]; 200 J/cm^2, 24 hours post administration): slow healing following treatment was observed
Median Evaluable Week [3, 4]: 1 Week
Total with Max Reaction During Trial ≥4 [3, 4]: 14
Median Evaluable Week [3, 5]: 6 Week
Total with Max Reaction During Trial ≥4 [3, 5]: 165
Median Evaluable Week [3, 6]: 12 Week
Total with Max Reaction During Trial ≥4 [3, 6]: 496
median time to evaluation ([3]; acute lesion reactions of 2-3): 6 weeks
median time to evaluation ([3]; acute reactions of 4-5 (eschar or ulceration)): 12 weeks
